Assay results reported in patent US20130210057A1, “USE OF LABEL-FREE BIOSENSORS TO UNDERSTAND AND IDENTIFY TREATMENT FOR CANCER” (CORNING INCORPORATED, priority 2012, published 2013).
Entries after “also recorded” stand apart in the source; their conditions may differ. Where two headings read alike, the source gives them in different places. Ends that are not written are not given here.

Key:
HCT116 parental cells [1] = test: cAMP-Glo assay; format: cell-based, human; details: 15 minutes incubation
Description: (§1) Cells were cultured in the McCoy's 5a complete growth medium overnight. The next day cAMP-Glo assay was performed according to manufacturer's instruction (Promega, Cat# V1502). Briefly, cell culture medium was removed by flipping the plate. […] Luminescence was measured using Tecan Salim II plate reader.
(§2) To screen endogenous receptors and their coupled signaling pathways, we first assembled a GPCR agonist focused library (Table 1). The library consists of 120 GPCR agonists covering over 150 known GPCRs, based on their known pharmacology including polypharmacology. For small molecule chemical agonists, the dose used was 10 micromolar. For peptide agonists, the dose used was 1 micromolar. For lipid agonists, the dose used was also 1 micromolar. For both peptides and lipids, these agonists were suspended in a solution containing 0.05% bovine […] to increase their stability.
(§3) cAMP assays were employed to investigate endogenous Gs-coupled receptors. FIG. 2 is a graph illustrating cAMP accumulation induced by GPCR agonists. The percentage of cAMP level after normalized to the forskolin-induced cAMP increase was plotted as a function of GPCR agonists. PCT116 parental (squares) was compared with HCT116-PTEN Null (diamonds) cell line.

HCT116 PTEN null cells [2] = test: cAMP-Glo assay; format: cell-based, human; details: 15 minutes incubation
Description: as §1, §2, §3

HCT116 parental cells [3] = test: Calcium flux assay (FLUO-4, FDSS/FLIPR); format: cell-based, human; details: small molecule agonists 10 micromolar, peptide and lipid agonists 1 micromolar
From the text: as §2

HCT116 PTEN null cells [4] = test: Calcium flux assay (FLUO-4, FDSS/FLIPR); format: cell-based, human; details: small molecule agonists 10 micromolar, peptide and lipid agonists 1 micromolar
From the text: as §2

[5] = tested on: HCT116 parental cell line; test: Label-free RWG biosensor DMR assay; format: cell-based, human; details: for kinase inhibitor drug-induced DMR signal: 16 μM
From the text: (§4) EPIC® beta version wavelength interrogation system (Corning Inc., NY) was used for whole cell sensing. This system consists of a temperature-control unit, an optical detection unit, and an on-board liquid handling unit with robotics. The detection unit is centered on integrated fiber optics, and enables kinetic measures of cellular responses with a time interval of ˜15 sec. Also EPIC® commercial systems were used, with a liquid handler accessory attached to EPIC® reader system. Also, an Epic® RWG imager can be used.
(§5) The resonant waveguide grating (RWG) biosensor is capable of detecting minute changes in local index of refraction near the sensor surface and the waveguide thin film having gratings provide a cell culture surface. Since the local index of refraction within a cell is a function of density and its distribution of biomass (e.g., proteins, molecular complexes), the biosensor exploits its evanescent wave to non-invasively detect ligand-induced Dynamic Mass Redistribution (DMR) in native cells. When a cell is stimulated, it responds. That response is a redistribution of biomass in the cell. Upon stimulation, proteins, protein complexes, and/or organelles in the cells move. The evanescent wave extends into the cells and exponentially decays over distance, leading to a characteristic sensing depth of ˜150 nm. Any optical response mediated through receptor activation only represents an average over the portion of the cell that the evanescent wave is sampling. The aggregation of many cellular events downstream to the receptor activation leads to a DMR signal having characteristic kinetics and amplitudes.
(§6) All assays were carried out at a controlled temperature (28° C.). At least two independent sets of experiments, each with at least three replicates, were performed.

[6] = tested on: HCT116-PTEN Null cell line; test: Label-free RWG biosensor DMR assay; format: cell-based, human; details: for kinase inhibitor drug-induced DMR signal: HCT116-PTEN null; for kinase inhibitor drug-induced DMR signal / sensitivity of kinase inhibitor drug-induced DMR to PTEN deletion: 16 μM; for sensitivity of kinase inhibitor drug-induced DMR to PTEN deletion: PTEN null vs parental
From the text: as §4, §5, §6

[7] = tested on: IGF1-induced DMR in HCT116-PTEN Null cell line; test: DMR reporter assay: modulation of IGF1-induced DMR by kinase inhibitor pretreatment; details: 2 nM IGF1; for alteration of the late response of the IGF1 DMR (signal at 50 min poststimulation) / impact on the early P-DMR amplitude of the IGF1 DMR: HCT116-PTEN Null; for alteration of the late response of the IGF1 DMR (signal at 50 min poststimulation): about 1 hr pretreatment at different doses; for impact on the early P-DMR amplitude of the IGF1 DMR / potency to increase the late IGF1 response, PTEN-deleted vs parental cell line: about 1 hr pretreatment
[8] = tested on: IGF1-induced DMR in HCT116 parental cell line; test: as above; details: 2 nM IGF1; for alteration of the late response of the IGF1 DMR (signal at 50 min poststimulation): about 1 hr pretreatment at different doses; for impact on the early P-DMR amplitude of the IGF1 DMR: about 1 hr pretreatment

Compound: CCNC(=O)[C@H]1O[C@@H](n2cnc3c(N)nc(NCCc4ccc(CCC(=O)O)cc4)nc32)[C@H](O)[C@@H]1O [CGS21680]
- cAMP accumulation (normalized to forskolin-induced cAMP increase) (HCT116 parental cells [1]): detectable cAMP accumulation
- cAMP accumulation (normalized to forskolin-induced cAMP increase) (HCT116 PTEN null cells [2]): detectable cAMP accumulation

Compound: CCCCC[C@H](O)/C=C/[C@H]1[C@H](O)CC(=O)[C@@H]1C/C=C\CCCC(=O)O [PGE2, Peostaglandin E2]
- cAMP accumulation (normalized to forskolin-induced cAMP increase) (HCT116 parental cells [1]): detectable cAMP accumulation
- cAMP accumulation (normalized to forskolin-induced cAMP increase) (HCT116 PTEN null cells [2]): detectable cAMP accumulation

Compound: O=c1ccn([C@@H]2O[C@H](COP(=O)(O)OP(=O)(O)O)[C@@H](O)[C@H]2O)c(=O)[nH]1 [UDP]
- Ca^2+ mobilization (fold increase in fluorescence, FLIPR) (HCT116 parental cells [3]): robust Ca^2+ mobilization
- Ca^2+ mobilization (fold increase in fluorescence, FLIPR) (HCT116 PTEN null cells [4]): robust Ca^2+ mobilization

Compound: Nc1ncnc2c1ncn2[C@@H]1O[C@H](CO)[C@@H](O)[C@H]1O [adenosine, Adenosine]
- effect of cholera toxin (CTx) pretreatment on the agonist DMR [5]: almost completely suppressed
- receptor / signaling pathway activated (pathway deconvolution of DMR with toxins) ([5]; HCT116 parental, 10 μM agonist): primarily activates endogenous Gs-coupled adenosine A2B receptors
- effect of pertussis toxin (PTx) pretreatment on the agonist DMR ([5]; HCT116 parental, PTX 100 ng/ml overnight, 10 μM agonist): only accelerated
- effect of cholera toxin (CTx) pretreatment on the agonist DMR [6]: almost completely suppressed
- agonist DMR in PTEN deleted cell line compared to parental cell line (sensitivity to PTEN deletion) ([6]; 10 μM agonist (EGF, IGF1 1 μM)): greatly different
- receptor / signaling pathway activated (pathway deconvolution of DMR with toxins) ([6]; HCT116-PTEN Null, 10 μM agonist): primarily activates endogenous Gs-coupled adenosine A2B receptors
- effect of pertussis toxin (PTx) pretreatment on the agonist DMR ([6]; HCT116-PTEN Null, PTX 100 ng/ml overnight, 10 μM agonist): only accelerated

Compound: CNC[C@H](O)c1ccc(O)c(O)c1 [epinephrine, (−)epinephrine]
- effect of pertussis toxin (PTx) pretreatment on the agonist DMR [5]: little effect
- receptor / signaling pathway activated (pathway deconvolution of DMR with toxins) [5]: primarily activates endogenous Gs-coupled beta1-adrenergic receptor
- agonist DMR in PTEN deleted cell line compared to parental cell line (sensitivity to PTEN deletion) [6]: greatly differed
- effect of pertussis toxin (PTx) pretreatment on the agonist DMR [6]: little effect
- receptor / signaling pathway activated (pathway deconvolution of DMR with toxins) [6]: primarily activates endogenous Gs-coupled beta1-adrenergic receptor

Compound: C#Cc1cccc(Nc2ncnc3cc(OCCOC)c(OCCOC)cc23)c1 [erlotinib]
- alteration of the late response of the IGF1 DMR (signal at 50 min poststimulation) [7]: increased in the dose-dependent manner
- impact on the early P-DMR amplitude of the IGF1 DMR [7]: little impact
- potency to increase the late IGF1 response, PTEN-deleted vs parental cell line [7]: lower
- alteration of the late response of the IGF1 DMR (signal at 50 min poststimulation) [8]: increased in the dose-dependent manner
- impact on the early P-DMR amplitude of the IGF1 DMR [8]: little impact
- kinase inhibitor drug-induced DMR signal ([5]; HCT116 parental): very small DMR signals
- kinase inhibitor drug-induced DMR signal [6]: very small DMR signals

Compound: CO[C@H]1C[C@@H]2CC[C@@H](C)[C@@](O)(O2)C(=O)C(=O)N2CCCC[C@H]2C(=O)O[C@H]([C@H](C)C[C@@H]2CC[C@@H](OCCO)[C@H](OC)C2)CC(=O)[C@H](C)/C=C(\C)[C@@H](O)[C@@H](OC)C(=O)[C@H](C)C[C@H](C)/C=C/C=C/C=C/1C [everolimus]
- kinase inhibitor drug-induced DMR signal ([5]; HCT116 parental): detectable DMR
- sensitivity of kinase inhibitor drug-induced DMR to PTEN deletion [6]: suppressed or decreased the kinetics

Compound: C=C[C@@]1(C)CC(=O)[C@]2(O)[C@@]3(C)[C@@H](O)CCC(C)(C)[C@@H]3[C@H](O)[C@H](OC(C)=O)[C@@]2(C)O1 [forskolin]
- DMR signal amplitude ([5]; HCT116 parental, GPCR agonist library profiling, 3-45 min poststimulation): greater than 80 picometer
- DMR signal amplitude ([6]; HCT116-PTEN Null, GPCR agonist library profiling, 3-45 min poststimulation): greater than 80 picometer

Compound: COc1cc2ncnc(Nc3ccc(F)c(Cl)c3)c2cc1OCCCN1CCOCC1 [gefitinib]
- alteration of the late response of the IGF1 DMR (signal at 50 min poststimulation) [7]: increased in the dose-dependent manner
- impact on the early P-DMR amplitude of the IGF1 DMR [7]: little impact
- potency to increase the late IGF1 response, PTEN-deleted vs parental cell line [7]: lower
- alteration of the late response of the IGF1 DMR (signal at 50 min poststimulation) [8]: increased in the dose-dependent manner
- impact on the early P-DMR amplitude of the IGF1 DMR [8]: little impact

Compound: Cc1ccc(NC(=O)c2ccc(CN3CCN(C)CC3)cc2)cc1Nc1nccc(-c2cccnc2)n1 [imatinib]
- alteration of the late response of the IGF1 DMR (signal at 50 min poststimulation) [8]: dose-dependently increased
- sensitivity of kinase inhibitor drug-induced DMR to PTEN deletion [6]: sensitive; also recorded: great sensitivity

Compound: CS(=O)(=O)CCNCc1ccc(-c2ccc3ncnc(Nc4ccc(OCc5cccc(F)c5)c(Cl)c4)c3c2)o1 [lapatinib]
- kinase inhibitor drug-induced DMR signal ([5]; HCT116 parental): did not result in any detectable DMR
- kinase inhibitor drug-induced DMR signal [6]: did not result in any detectable DMR

Compound: Cc1cn(-c2cc(NC(=O)c3ccc(C)c(Nc4nccc(-c5cccnc5)n4)c3)cc(C(F)(F)F)c2)cn1 [nilotinib]
- sensitivity of kinase inhibitor drug-induced DMR to PTEN deletion [6]: sensitive

Compound: CNC(=O)c1cc(Oc2ccc(NC(=O)Nc3ccc(Cl)c(C(F)(F)F)c3)cc2)ccn1 [sorafenib]
- kinase inhibitor drug-induced DMR signal ([5]; HCT116 parental): did not result in any detectable DMR
- kinase inhibitor drug-induced DMR signal [6]: did not result in any detectable DMR

Compound: CO[C@H]1C[C@@H]2CC[C@@H](C)[C@@](O)(O2)C(=O)C(=O)N2CCCC[C@H]2C(=O)O[C@H]([C@H](C)C[C@@H]2CC[C@@H](OC(=O)C(C)(CO)CO)[C@H](OC)C2)CC(=O)[C@H](C)/C=C(\C)[C@@H](O)[C@@H](OC)C(=O)[C@H](C)C[C@H](C)/C=C/C=C/C=C/1C [temsirolimus]
- kinase inhibitor drug-induced DMR signal ([5]; HCT116 parental): detectable DMR
- sensitivity of kinase inhibitor drug-induced DMR to PTEN deletion [6]: suppressed or decreased the kinetics

Compound: Adrenomedulin (YRQSMNNFQGLRSFGCRFGTCTVQKLAHQIYQFTDKDKDNVAPRSKISPQGY; ends and bridges not checked; cysteine pairing not given here; UniProt P35318 95-146, looked up) [peptide agonist of adrenomedulin receptor]
- cAMP accumulation (normalized to forskolin-induced cAMP increase) (HCT116 parental cells [1]): detectable cAMP accumulation
- cAMP accumulation (normalized to forskolin-induced cAMP increase) (HCT116 PTEN null cells [2]): detectable cAMP accumulation

Compound: Calcitonin (CGNLSTCMLGTYTQDFNKFHTFPQTAIGVGAP; ends and bridges not checked; cysteine pairing not given here; UniProt P01258 85-116, looked up) [peptide agonist of calcitonin receptor]
- cAMP accumulation (normalized to forskolin-induced cAMP increase) (HCT116 parental cells [1]): detectable cAMP accumulation
- cAMP accumulation (normalized to forskolin-induced cAMP increase) (HCT116 PTEN null cells [2]): detectable cAMP accumulation

Compound: EGF: epidermal growth factor (EGF) (NSDSECPLSHDGYCLHDGVCMYIEALDKYACNCVVGYIGERCQYRDLKWWELR; Epidermal growth factor; UniProt P01133 971-1023, looked up)
- agonist DMR in PTEN deleted cell line compared to parental cell line (sensitivity to PTEN deletion) ([6]; 10 μM agonist (EGF, IGF1 1 μM)): insensitive

Compound: IGF1: insulin growth factor-1 (IGF1)
- agonist-induced DMR signal ([5]; HCT116 parental, untreated, 10 μM agonist (EGF, IGF1 1 μM)): robust DMR signal
- agonist DMR in PTEN deleted cell line compared to parental cell line (sensitivity to PTEN deletion) ([6]; 10 μM agonist (EGF, IGF1 1 μM)): clear effects; also recorded: greater sensitivity
- agonist-induced DMR signal ([6]; HCT116-PTEN Null, untreated, 10 μM agonist (EGF, IGF1 1 μM)): robust DMR signal

Compound: Vasoactive intestinal peptide (HSDAVFTDNYTRLRKQMAVKKYLNSILN; ends and bridges not checked; UniProt P01282 125-152, looked up) [VIP]
- cAMP accumulation (normalized to forskolin-induced cAMP increase) (HCT116 parental cells [1]): detectable cAMP accumulation
- cAMP accumulation (normalized to forskolin-induced cAMP increase) (HCT116 PTEN null cells [2]): detectable cAMP accumulation
